Source: ChEMBL document CHEMBL1649268, “Comparative in vitro activity profile of oritavancin against recent gram-positive clinical isolates” (2009)
Values after ≈ are worked out from the molar mass of the structure shown.

Key:
[1] = system: Streptococcus pneumoniae; assay: Antimicrobial activity against penicillin-resistant Streptococcus pneumoniae clinical isolates by broth microdilution method; type: functional
[2] = system: Streptococcus pyogenes; assay: Antimicrobial activity against erythromycin-nonsusceptible Streptococcus pyogenes clinical isolates assessed as percent susceptible isolates by broth microdilution method; type: functional
[3] = system: Streptococcus pyogenes; assay: Antimicrobial activity against Streptococcus pyogenes clinical isolates by broth microdilution method; type: functional
[4] = system: Streptococcus pyogenes; assay: Antimicrobial activity against erythromycin-susceptible Streptococcus pyogenes clinical isolates assessed as percent susceptible isolates by broth microdilution method; type: functional
[5] = system: Staphylococcus aureus; assay: Antimicrobial activity against Staphylococcus aureus clinical isolates assessed as resistant isolates by broth microdilution method; type: functional
[6] = system: Streptococcus pneumoniae; assay: Antimicrobial activity against Streptococcus pneumoniae clinical isolates assessed as percent susceptible isolates by broth microdilution method; type: functional
[7] = Antimicrobial activity against erythromycin-susceptible Streptococcus Group C clinical isolates assessed as percent susceptible isolates by broth microdilution method; type: functional, Streptococcus sp. 'group C'
[8] = system: Staphylococcus epidermidis; assay: Antimicrobial activity against oxacillin-susceptible Staphylococcus epidermidis clinical isolates by broth microdilution method; type: functional
[9] = Antimicrobial activity against erythromycin-susceptible Streptococcus Group C clinical isolates by broth microdilution method; type: functional; settings: Streptococcus sp. 'group C'
[10] = Antimicrobial activity against erythromycin-susceptible Streptococcus Group G clinical isolates by broth microdilution method; type: functional; settings: Streptococcus sp. 'group G'
[11] = system: Staphylococcus epidermidis; assay: Antimicrobial activity against Staphylococcus epidermidis clinical isolates assessed as resistant isolates by broth microdilution method; type: functional
[12] = system: Staphylococcus haemolyticus; assay: Antimicrobial activity against oxacillin-resistant Staphylococcus haemolyticus clinical isolates assessed as resistant isolates by broth microdilution method; type: functional
[13] = system: Streptococcus pneumoniae; assay: Antimicrobial activity against penicillin-intermediate Streptococcus pneumoniae clinical isolates by broth microdilution method; type: functional
[14] = system: Streptococcus agalactiae; assay: Antimicrobial activity against erythromycin-susceptible Streptococcus agalactiae clinical isolates by broth microdilution method; type: functional
[15] = Antimicrobial activity against erythromycin-nonsusceptible Streptococcus Group G clinical isolates assessed as resistant isolates by broth microdilution method; type: functional, Streptococcus sp. 'group G'
[16] = system: Streptococcus agalactiae; assay: Antimicrobial activity against erythromycin-susceptible Streptococcus agalactiae clinical isolates assessed as percent susceptible isolates by broth microdilution method; type: functional
[17] = system: Staphylococcus epidermidis; assay: Antimicrobial activity against oxacillin-resistant Staphylococcus epidermidis clinical isolates assessed as percent susceptible isolates by broth microdilution method; type: functional
[18] = Antimicrobial activity against erythromycin-susceptible Streptococcus Group C clinical isolates assessed as resistant isolates by broth microdilution method; type: functional, Streptococcus sp. 'group C'
[19] = system: Streptococcus pyogenes; assay: Antimicrobial activity against Streptococcus pyogenes clinical isolates assessed as percent susceptible isolates by broth microdilution method; type: functional
[20] = system: Streptococcus; assay: Antimicrobial activity against erythromycin-nonsusceptible Streptococcus Group F clinical isolates by broth microdilution method; type: functional
[21] = system: Streptococcus agalactiae; assay: Antimicrobial activity against erythromycin-nonsusceptible Streptococcus agalactiae clinical isolates assessed as percent susceptible isolates by broth microdilution method; type: functional
[22] = Antimicrobial activity against Streptococcus Group C clinical isolates assessed as percent susceptible isolates by broth microdilution method; type: functional, Streptococcus sp. 'group C'
[23] = Antimicrobial activity against Streptococcus Group C clinical isolates by broth microdilution method; type: functional; settings: Streptococcus sp. 'group C'
[24] = system: Streptococcus pneumoniae; assay: Antimicrobial activity against Streptococcus pneumoniae clinical isolates assessed as resistant isolates by broth microdilution method; type: functional
[25] = system: Streptococcus agalactiae; assay: Antimicrobial activity against erythromycin-nonsusceptible Streptococcus agalactiae clinical isolates assessed as resistant isolates by broth microdilution method; type: functional
[26] = system: Streptococcus agalactiae; assay: Antimicrobial activity against Streptococcus agalactiae clinical isolates assessed as percent susceptible isolates by broth microdilution method; type: functional
[27] = system: Streptococcus agalactiae; assay: Antimicrobial activity against Streptococcus agalactiae clinical isolates by broth microdilution method; type: functional
[28] = system: Streptococcus agalactiae; assay: Antimicrobial activity against erythromycin-susceptible Streptococcus agalactiae clinical isolates assessed as resistant isolates by broth microdilution method; type: functional
[29] = system: Streptococcus pneumoniae; assay: Antimicrobial activity against penicillin-susceptible Streptococcus pneumoniae clinical isolates assessed as percent susceptible isolates by broth microdilution method; type: functional
[30] = system: Staphylococcus epidermidis; assay: Antimicrobial activity against oxacillin-susceptible Staphylococcus epidermidis clinical isolates assessed as resistant isolates by broth microdilution method; type: functional
[31] = system: Streptococcus pyogenes; assay: Antimicrobial activity against erythromycin-susceptible Streptococcus pyogenes clinical isolates by broth microdilution method; type: functional
[32] = Antimicrobial activity against erythromycin-susceptible Streptococcus Group G clinical isolates assessed as resistant isolates by broth microdilution method; type: functional, Streptococcus sp. 'group G'
[33] = system: Streptococcus pneumoniae; assay: Antimicrobial activity against penicillin-intermediate Streptococcus pneumoniae clinical isolates assessed as percent susceptible isolates by broth microdilution method; type: functional
[34] = system: Streptococcus; assay: Antimicrobial activity against Streptococcus Group F clinical isolates by broth microdilution method; type: functional
[35] = system: Staphylococcus aureus; assay: Antimicrobial activity against oxacillin-susceptible Staphylococcus aureus clinical isolates by broth microdilution method; type: functional
[36] = system: Streptococcus pneumoniae; assay: Antimicrobial activity against penicillin-susceptible Streptococcus pneumoniae clinical isolates by broth microdilution method; type: functional
[37] = system: Streptococcus agalactiae; assay: Antimicrobial activity against Streptococcus agalactiae clinical isolates assessed as resistant isolates by broth microdilution method; type: functional
[38] = system: Streptococcus pneumoniae; assay: Antimicrobial activity against penicillin-resistant Streptococcus pneumoniae clinical isolates assessed as percent susceptible isolates by broth microdilution method; type: functional
[39] = system: Streptococcus agalactiae; assay: Antimicrobial activity against erythromycin-nonsusceptible Streptococcus agalactiae clinical isolates by broth microdilution method; type: functional
[40] = system: Staphylococcus haemolyticus; assay: Antimicrobial activity against Staphylococcus haemolyticus clinical isolates by broth microdilution method; type: functional
[41] = system: Streptococcus pyogenes; assay: Antimicrobial activity against erythromycin-nonsusceptible Streptococcus pyogenes clinical isolates by broth microdilution method; type: functional
[42] = system: Staphylococcus haemolyticus; assay: Antimicrobial activity against oxacillin-resistant Staphylococcus haemolyticus clinical isolates by broth microdilution method; type: functional
[43] = Antimicrobial activity against erythromycin-susceptible Streptococcus Group G clinical isolates assessed as percent susceptible isolates by broth microdilution method; type: functional, Streptococcus sp. 'group G'
[44] = Antimicrobial activity against erythromycin-nonsusceptible Streptococcus Group C clinical isolates by broth microdilution method; type: functional; settings: Streptococcus sp. 'group C'
[45] = system: Streptococcus; assay: Antimicrobial activity against erythromycin-susceptible Streptococcus Group F clinical isolates by broth microdilution method; type: functional
[46] = system: Staphylococcus epidermidis; assay: Antimicrobial activity against Staphylococcus epidermidis clinical isolates assessed as percent susceptible isolates by broth microdilution method; type: functional
[47] = system: Streptococcus pyogenes; assay: Antimicrobial activity against erythromycin-susceptible Streptococcus pyogenes clinical isolates assessed as resistant isolates by broth microdilution method; type: functional
[48] = Antimicrobial activity against erythromycin-nonsusceptible Streptococcus Group G clinical isolates by broth microdilution method; type: functional; settings: Streptococcus sp. 'group G'
[49] = system: Staphylococcus aureus; assay: Antimicrobial activity against oxacillin-resistant Staphylococcus aureus clinical isolates assessed as resistant isolates by broth microdilution method; type: functional
[50] = Antimicrobial activity against Streptococcus Group G clinical isolates by broth microdilution method; type: functional; settings: Streptococcus sp. 'group G'
[51] = system: Streptococcus pneumoniae; assay: Antimicrobial activity against Streptococcus pneumoniae clinical isolates by broth microdilution method; type: functional
[52] = system: Enterococcus faecium; assay: Antimicrobial activity against vancomycin-nonsusceptible Enterococcus faecium clinical isolates by broth microdilution method; type: functional
[53] = system: Enterococcus faecium; assay: Antimicrobial activity against vancomycin-nonsusceptible Enterococcus faecium clinical isolates assessed as percent susceptible isolates by broth microdilution method; type: functional
[54] = system: Enterococcus faecalis; assay: Antimicrobial activity against Enterococcus faecalis expressing VanA gene clinical isolates by broth microdilution method; type: functional
[55] = system: Enterococcus faecalis; assay: Antimicrobial activity against Enterococcus faecalis expressing VanA gene clinical isolates assessed as percent susceptible isolates by broth microdilution method; type: functional
[56] = system: Enterococcus faecium; assay: Antimicrobial activity against Enterococcus faecium expressing VanA gene clinical isolates by broth microdilution method; type: functional
[57] = system: Enterococcus faecalis; assay: Antimicrobial activity against Enterococcus faecalis expressing VanB gene clinical isolates assessed as percent susceptible isolates by broth microdilution method; type: functional

## CCC[C@@H]1C[C@@H](C(=O)N[C@@H]([C@H]2O[C@H](SC)[C@H](O)[C@@H](O)[C@H]2O)[C@H](C)Cl)N(C)C1 [CLINDAMYCIN]
[1]
  MIC: > 0.03 µg/mL
[2]
  Activity: 71%
[3]
  MIC90: 0.06 µg/mL (≈ 0.141 µM)
[4]
  Activity: 100%
[5]
  Percent resistant isolates: 24.1%
[6]
  Activity: 86.9%
[7]
  Activity: 100%
[8]
  MIC90: > 2 µg/mL
[9]
  MIC90: 0.06 µg/mL (≈ 0.141 µM)
[10]
  MIC90: 0.06 µg/mL (≈ 0.141 µM)
[11]
  Percent of isolates resistant: 34.5%
[12]
  Activity: 37.1%
[13]
  MIC90: > 1 µg/mL
[14]
  MIC90: 0.06 µg/mL (≈ 0.141 µM)
[15]
  Activity: 17.6%
[16]
  Activity: 99%
[17]
  Activity: 56.3%
[18]
  Activity: 0%
[19]
  Activity: 96%
[20]
  MIC90: > 1 µg/mL
[21]
  Activity: 41%
[22]
  Activity: 96.4%
[23]
  MIC90: 0.06 µg/mL (≈ 0.141 µM)
[24]
  Resistant isolates: 12.9%
[25]
  Activity: 57.4%
[26]
  Activity: 81.9%
[27]
  MIC90: > 1 µg/mL
[28]
  Activity: 1%
[29]
  Activity: 97.2%
[30]
  Percent of isolates resistant: 11%
[31]
  MIC90: 0.06 µg/mL (≈ 0.141 µM)
[32]
  Activity: 0%
[33]
  Activity: 84.7%
[34]
  MIC90: 0.06 µg/mL (≈ 0.141 µM)
[35]
  MIC90: 0.25 µg/mL (≈ 0.588 µM)
[36]
  MIC90: 0.06 µg/mL (≈ 0.141 µM)
[37]
  Activity: 17.6%
[38]
  Activity: 45.3%
[39]
  MIC90: > 1 µg/mL
[40]
  MIC90: > 2 µg/mL
[41]
  MIC90: > 1 µg/mL
[42]
  MIC90: > 4 µg/mL
[43]
  Activity: 100%
[44]
  MIC90: > 1 µg/mL
[45]
  MIC90: 0.06 µg/mL (≈ 0.141 µM)
[46]
  Activity: 65%
[47]
  Activity: 0%
[48]
  MIC90: > 1 µg/mL
[49]
  Percent resistant isolates: 37.9%
[50]
  MIC90: 0.06 µg/mL (≈ 0.141 µM)
[51]
  MIC90: > 1 µg/mL

## C[C@H]1COc2c(N3CCN(C)CC3)c(F)cc3c(=O)c(C(=O)O)cn1c23.C[C@H]1COc2c(N3CCN(C)CC3)c(F)cc3c(=O)c(C(=O)O)cn1c23.O [LEVOFLOXACIN]
[52]
  MIC90: > 16 µg/mL
[1]
  MIC90: 1 µg/mL
[2]
  Activity: 99.2%
[3]
  MIC90: 0.5 µg/mL
[4]
  Activity: 100%
[6]
  Activity: 99.1%
[7]
  Activity: 100%
[53]
  Activity: 0.2%
[9]
  MIC90: 0.5 µg/mL
[10]
  MIC90: 0.5 µg/mL
[54]
  MIC90: > 16 µg/mL
[13]
  MIC90: 1 µg/mL
[14]
  MIC90: 1 µg/mL
[15]
  Activity: 0%
[16]
  Activity: 98.6%
[18]
  Activity: 0%
[19]
  Activity: 99.9%
[20]
  MIC90: 0.5 µg/mL
[21]
  Activity: 95.9%
[23]
  MIC90: 0.5 µg/mL
[24]
  Resistant isolates: 0.9%
[25]
  Activity: 4.1%
[26]
  Activity: 97.8%
[27]
  MIC90: 1 µg/mL
[28]
  Activity: 1.4%
[29]
  Activity: 99.5%
[31]
  MIC90: 0.5 µg/mL
[55]
  Activity: 0%
[32]
  Activity: 0%
[33]
  Activity: 97.7%
[56]
  MIC90: > 16 µg/mL
[34]
  MIC90: 0.5 µg/mL
[36]
  MIC90: 1 µg/mL
[37]
  Activity: 2.2%
[38]
  Activity: 99.3%
[39]
  MIC90: 1 µg/mL
[41]
  MIC90: 1 µg/mL
[57]
  Activity: 0%
[43]
  Activity: 100%
[44]
  MIC90: 0.5 µg/mL
[45]
  MIC90: 0.5 µg/mL
[47]
  Activity: 0%
[48]
  MIC90: 0.5 µg/mL
[50]
  MIC90: 0.5 µg/mL
[51]
  MIC90: 1 µg/mL
